Assay results taken from article PMC2363760, “A novel doxorubicin-glucuronide prodrug DOX-GA3 for tumour-selective chemotherapy: distribution and efficacy in experimental human ovarian cancer” (British Journal of Cancer, 2001).
Like-named read-outs stand apart in the source and are kept apart here.

How the values were obtained:
β-glucuronidase [1] = assay: Inhibition of β-glucuronidase activity by saccharolactone in samples; type: biochemical; conditions: 1 mM (data not shown)
β-glucuronidase [2] = conditions: ref Tomino and Paigen, 1975; cited from earlier work
[3] = Stability of DOX-GA3 in stored control tissue homogenates and serum samples; type: in vitro ADME; conditions: up to 1 mM, up to 4 weeks at -20C (data not shown)
OVCAR-3 xenografts = conditions: for Weight loss / TD14 (tumour volume doubling time from a relative volume of 1 to 4) / Weight day 14: DOX 8 or DOX-GA3 500 mg kg-1 i.v. days 0,7; for GI % (maximum growth inhibition): DOX 8 or DOX-GA3 500 mg kg-1 i.v. weekly x 2
human β-glucuronidase = molecular target: T1, human β-glucuronidase (Homo sapiens, UniProt P08236); conditions: pH 6.8, 37C, enzyme 1 g ml-1, 30 min, direct linear plots
T1 sequence (P08236 23-651): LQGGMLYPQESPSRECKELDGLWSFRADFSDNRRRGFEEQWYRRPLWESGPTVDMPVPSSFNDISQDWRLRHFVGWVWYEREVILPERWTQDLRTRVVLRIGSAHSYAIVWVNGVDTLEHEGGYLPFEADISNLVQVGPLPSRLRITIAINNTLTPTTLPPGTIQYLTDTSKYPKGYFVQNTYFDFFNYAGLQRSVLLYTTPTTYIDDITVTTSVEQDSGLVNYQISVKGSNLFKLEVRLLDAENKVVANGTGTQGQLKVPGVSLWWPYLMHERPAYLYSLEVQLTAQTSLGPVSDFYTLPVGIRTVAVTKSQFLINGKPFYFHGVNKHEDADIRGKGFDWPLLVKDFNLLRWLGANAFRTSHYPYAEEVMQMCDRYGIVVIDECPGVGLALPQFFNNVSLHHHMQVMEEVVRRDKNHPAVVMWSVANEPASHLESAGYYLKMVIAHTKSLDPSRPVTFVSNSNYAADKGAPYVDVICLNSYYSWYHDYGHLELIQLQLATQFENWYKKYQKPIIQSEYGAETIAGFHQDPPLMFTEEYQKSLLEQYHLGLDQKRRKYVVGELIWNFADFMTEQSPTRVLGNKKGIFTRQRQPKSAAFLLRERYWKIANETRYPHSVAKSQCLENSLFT

[4] = In vivo stability of the prodrug in non-tumour bearing mice; conditions: DOX-GA3 250 mg kg-1, t = 30 min
OVCAR-3 cells = assay: In vitro antiproliferative effects in OVCAR-3 cells (sulforhodamine B, 72 h); type: cell-based, human; conditions: for IC50: 72 h
[5] = Maximum tolerated dose in OVCAR-3-bearing nude mice
[6] = DOX-GA3 250 mg kg-1 vs DOX 8 mg kg-1
[7] = after DOX 8 mg kg-1 or DOX-GA3 250 mg kg-1 i.v.

## O.O=C(O)[C@@H](O)[C@H]1OC(=O)[C@H](O)[C@H]1O [Saccharolactone, D-glucaric acid-1,4-lactone monohydrate]
β-glucuronidase [1]
  activity of the enzyme abolished: > 99%

## O=C(O)[C@H]1O[C@@H](Oc2ccc([N+](=O)[O-])cc2)[C@H](O)[C@@H](O)[C@@H]1O [4-nitrophenyl-glucuronide]
β-glucuronidase [2]
  Km: 1300 µM

## COc1cccc2c1C(=O)c1c(O)c3c(c(O)c1C2=O)C[C@@](O)(C(=O)CO)C[C@@H]3O[C@H]1C[C@H](NC(=O)OCc2ccc(NC(=O)O[C@@H]3O[C@H](C(=O)O)[C@@H](O)[C@H](O)[C@H]3O)cc2)[C@H](O)[C@H](C)O1 [DOX-GA3, N -[4-doxorubicin-N -carbonyl (oxymethyl)phenyl] O -β-glucuronyl carbamate]
[3]
  activation to doxorubicin on storage: less than 0.1%
OVCAR-3 xenografts; larger tumours (mean 400 mm3), 500 mg kg-1 i.v. weekly x 2
  specific growth delay (SGD): 3.9
OVCAR-3 xenografts; larger tumours (mean 400 mm3)
  Weight loss: 9.6%
  GI % (maximum growth inhibition): 88%
OVCAR-3 xenografts; larger tumours
  TD14 (tumour volume doubling time from a relative volume of 1 to 4): 75.1 days
  Weight day 14: 91.9%
OVCAR-3 xenografts; small tumours (mean 125 mm3)
  Weight loss: 5.1%
  GI % (maximum growth inhibition): 87%
OVCAR-3 xenografts; small tumours
  TD14 (tumour volume doubling time from a relative volume of 1 to 4): 32.4 days
  Weight day 14: 99.0%
DOX at MTD, prodrug at half of MTD
  tumour AUC of DOX, fold higher after DOX-GA3 than after DOX: 10 fold
DOX-GA3 250 mg kg-1 i.v. vs DOX 8 mg kg-1 i.v.
  times lower peak plasma concentration of DOX than after DOX: 7.6 times
DOX-GA3 250 mg kg-1 i.v., t = 1 min
  prodrug peak concentration in plasma: 1370 nmol/mL
DOX-GA3 250 mg kg-1 i.v., t = 30 min
  peak of DOX-GA3 in OVCAR-3 tumour tissue: 44.0 nmol/g
[6]
  fold higher DOX peak concentration in tumour than after DOX: ~5 fold
  fold lower peak DOX concentration in normal tissues (heart) than after DOX: up to 5 fold
After DOX 8 mg kg-1 (t = 1 min) or DOX-GA3 250 mg kg-1 (t = 2 h) i.v.
  DOX peak concentration in OVCAR-3 tumour tissue: 9.57 nmol/g
[7]
  DOX peak concentration in heart: 3.27 nmol/g
  DOX peak concentration in kidney: 70.8 nmol/g
  DOX peak concentration in liver: 14.2 nmol/g
  DOX peak concentration in plasma: 2.17 nmol/mL
Tumour vs heart
  drug targeting index (DTI), heart tissue: 31.4
Tumour vs plasma (surrogate for bone marrow)
  drug targeting index (DTI), plasma: 81.4
tumour-bearing animals, DOX-GA3 250 mg kg-1
  ratio of drug/prodrug in plasma: 0.002
Human β-glucuronidase
  Km: 1100 µM
  Vmax: 25.0 μmol min^–1mg^–1
[4]
  drug/prodrug ratio in plasma: 0.001
OVCAR-3 cells
  times less capable of inhibiting cell growth than DOX: more than 100 times
  IC50: 22 µM
[5]; 500 mg kg-1 i.v. weekly x 2
  maximum weight loss at MTD: approximately 10%
  toxic deaths at MTD: No toxic deaths occurred
[5]; DOX-GA3 500 mg kg-1 x 2 vs DOX 8 mg kg-1 x 2
  molar amount that could be administered at an equitoxic dose, compared with parent drug: 38 fold
[5]; i.v. weekly x 2, OVCAR-3-bearing mice
  MTD: 500 mg/kg

## COc1cccc2c1C(=O)c1c(O)c3c(c(O)c1C2=O)C[C@@](O)(C(=O)CO)C[C@@H]3O[C@H]1C[C@H](N)[C@H](O)[C@H](C)O1 [DOX, Doxorubicin]
OVCAR-3 xenografts; larger tumours (mean 400 mm3)
  GI % (maximum growth inhibition): 52%
OVCAR-3 xenografts; larger tumours
  TD14 (tumour volume doubling time from a relative volume of 1 to 4): 21.5 days
OVCAR-3 xenografts; small tumours (mean 125 mm3)
  GI % (maximum growth inhibition): 56%
OVCAR-3 xenografts; small tumours
  TD14 (tumour volume doubling time from a relative volume of 1 to 4): 11.5 days
nude, mouse, in vivo
  heart AUC of DOX, fold higher after DOX than after prodrug: 3.1 fold
  kidney AUC of DOX, times lower after DOX than after prodrug: 2.0 times
  liver AUC of DOX, fold higher after DOX than after prodrug: 1.8 fold
OVCAR-3 cells; Homo sapiens
  IC50: 0.12 µM
